This note sets out measurements from article PMC9241943, “LcCCL28-25, Derived from Piscine Chemokine, Exhibits Antimicrobial Activity against Gram-Negative and Gram-Positive Bacteria In Vitro and In Vivo” (Microbiology Spectrum, 2022).

Test [1] deals with Escherichia coli ATCC 25922. It is filed as cell-based. Conditions: ATCC 25922, 2 h. The method, then: (§1) The MIC assays were performed as previously described ([43]). Briefly, peptides were plated in a 2-fold dilution series (50 μL/well) of Mueller-Hinton broth (MHB) in Costar 96-well cell culture plates (Corning, NY, USA). Three repeats were set for each concentration. E. coli ATCC 25922, A. hydrophila ATCC 7966, P. aeruginosa PAO1, P. aeruginosa FRD1, S. aureus ATCC 25923, S. agalactiae ATCC 13813, S. pneumoniae ATCC 49619, methicillin-resistant S. aureus ATCC 43300, and methicillin-resistant S. aureus USA300 were cultured in Luria-Bertani (LB) medium, while K. pneumoniae CMCC46117 was cultured in tryptic soy broth (TSB) medium. Incubation was done at 37°C and 150 × g for 12 h. Bacteria were transferred to fresh MHB at a ratio of 1% (vol/vol) and incubated to reach a logarithmic growth phase. Then, 50 μL of a bacterial suspension at 4 × 10^6 CFU/mL was added to each well. […]

Test [2] relates to Aeromonas hydrophila ATCC 7966. It is filed as cell-based. Conditions: ATCC 7966, 2 h. Here is the method:
as §1

In test [3] the test system is Klebsiella pneumoniae CMCC46117. The class given is cell-based. Conditions: CMCC46117, 2 h. Here is the method:
as §1

In test [4] the test system is Streptococcus agalactiae ATCC 13813. It is filed as cell-based. As to conditions: ATCC 13813, 2 h. The method, then: as §1
Test [5] has as its system Pseudomonas aeruginosa PAO1. It is filed as cell-based. As to conditions: PAO1, 2 h. Here is the method:
as §1

The test system of test [6] is Staphylococcus aureus ATCC 25923. It is filed as cell-based. Conditions: ATCC 25923, 2 h. Here is the method: as §1
Test [7] deals with Streptococcus pneumoniae ATCC 49619. It is filed as cell-based. As to conditions: ATCC 49619, 2 h. The method, then:
as §1

The subject of the next test is P. aeruginosa FRD1. It is filed as cell-based, Pseudomonas aeruginosa. Conditions: FRD1, 2 h. Here is the method: as §1
The next test deals with E. coli ATCC 25922. Kind of test: SYTOX green membrane permeability assay. It is filed as cell-based, Escherichia coli. As to conditions: E. coli ATCC 25922, 5 μM SYTOX green, read every 1 min. Here is the method: The SYTOX green staining assay was performed to assess peptide-associated membrane damage ([47], [52]). E. coli ATCC 25922 and S. aureus ATCC 25923 cells in the mid-logarithmic phase were collected, washed thrice, and resuspended (5 × 10^7 CFU/mL) in buffer B (10 mM Tris-HCl, pH 7.4, at 25°C). The bacterial suspensions were mixed with 5 μM SYTOX green and incubated for 15 min at room temperature in the dark. Then, the mixtures were added to black, clear-bottom 96-well plates at a density of 100 μL/well. After peptide addition, SYTOX green uptake was monitored using an EnSpire multimode plate reader (PerkinElmer, Singapore) with an excitation wavelength of 485 nm and an emission wavelength of 520 nm. Each measurement interval was 1 min, totaling 30 to 60 times. Melittin was used as the positive control, while bovine serum albumin (BSA) was the negative control.

Test [8] relates to Methicillin-resistant S. aureus ATCC 43300. The class given is cell-based, Staphylococcus aureus. As to conditions: ATCC 43300, 2 h. Here is the method: as §1
For test [9], the system named is Methicillin-resistant S. aureus USA300. The class given is cell-based, Staphylococcus aureus. As to conditions: USA300, 2 h. The method, then:
as §1

Test [10] deals with Staphylococcus aureus USA300. Conditions: S. aureus USA300. The method, then:
The MIC assays were performed as previously described ([43]). Briefly, peptides were plated in a 2-fold dilution series (50 μL/well) of Mueller-Hinton broth (MHB) in Costar 96-well cell culture plates (Corning, NY, USA). Three repeats were set for each concentration. E. coli ATCC 25922, A. hydrophila ATCC 7966, P. aeruginosa PAO1, P. aeruginosa FRD1, S. aureus ATCC 25923, S. agalactiae ATCC 13813, S. pneumoniae ATCC 49619, methicillin-resistant S. aureus ATCC 43300, and methicillin-resistant S. aureus USA300 were cultured in Luria-Bertani (LB) medium, while K. pneumoniae CMCC46117 was cultured in tryptic soy broth (TSB) medium. Incubation was done at 37°C and 150 × g for 12 h. Bacteria were transferred to fresh MHB at a ratio of 1% (vol/vol) and incubated to reach a logarithmic growth phase. Then, 50 μL of a bacterial suspension at 4 × 10^6 CFU/mL was added to each well. After incubation at 37°C for 22 ± 2 h, turbidity was measured using an EnSpire multimode plate reader (PerkinElmer, Singapore) at 595 nm.

Values after ≈ are worked out from the molar mass of the structure shown. Residues, ends and D or L forms follow the SMILES beside them. Some results are limits rather than exact numbers.

For orientation: MIC means the lowest concentration found to suppress growth. A higher MIC goes with weaker potency. For the compound `CC[C@H](C)[C@H](NC(=O)[C@H](CC(=O)O)NC(=O)[C@H](CCCCN)NC(=O)[C@H](Cc1ccccc1)NC(=O)[C@@H](NC(=O)[C@@H](NC(=O)[C@H](CCC(N)=O)NC(=O)[C@H](CC(=O)O)NC(=O)[C@@H](N)C(C)C)[C@@H](C)O)C(C)C)C(=O)N[C@@H](Cc1c[nH]c2ccccc12)C(=O)N[C@@H](Cc1c[nH]c2ccccc12)C(=O)N[C@@H](CCCNC(=N)N)C(=O)N[C@@H](CCSC)C(=O)N[C@@H](CCCCN)C(=O)N[C@@H](CCC(N)=O)C(=O)N[C@@H](Cc1c[nH]c2ccccc12)C(=O)N[C@@H](CCCCN)C(=O)N[C@@H](CCC(N)=O)C(=O)N[C@@H](CCCNC(=N)N)C(=O)N[C@H](C(=O)N[C@@H](CCCCN)C(=O)N[C@@H](CCCCN)C(=O)N[C@@H](CCCNC(=N)N)C(=O)N[C@@H](C)C(=O)N[C@@H](C)C(=O)N[C@@H](CCCCN)C(=O)N[C@@H](Cc1ccc(O)cc1)C(=O)N[C@@H](CC(N)=O)C(=O)N[C@H](C(=O)O)C(C)C)C(C)C` [trCCL28-29] (H-VDQTVFKDIWWRMKQWKQRVKKRAAKYNV-OH; N-terminus and C-terminus assumed), the minimum inhibitory concentration (MIC) was found to be 12.50 µg/mL (≈ 3.34 µM) in test [1]; 25.00 µg/mL (≈ 6.69 µM) in [2]; 25.00 µg/mL (≈ 6.69 µM) in [3]; 12.50 µg/mL (≈ 3.34 µM) in [4]; 25.00 µg/mL (≈ 6.69 µM) in [5]; 12.50 µg/mL (≈ 3.34 µM) in [6]. In addition, the MIC was determined as 25.00 µg/mL (≈ 6.69 µM) in test [7], 25.00 µg/mL (≈ 6.69 µM) against P. aeruginosa FRD1, 12.50 µg/mL (≈ 3.34 µM) in [8] and 12.5 µg/mL (≈ 3.34 µM) in [9]. In the test with E. coli ATCC 25922, the “SYTOX green fluorescence intensity” value was “increased rapidly within 20 min”.

Take `CC[C@H](C)[C@H](NC(=O)CN)C(=O)NCC(=O)N[C@@H](C)C(=O)N[C@H](C(=O)N[C@@H](CC(C)C)C(=O)N[C@@H](CCCCN)C(=O)N[C@H](C(=O)N[C@@H](CC(C)C)C(=O)N[C@H](C(=O)N[C@H](C(=O)NCC(=O)N[C@@H](CC(C)C)C(=O)N1CCC[C@H]1C(=O)N[C@@H](C)C(=O)N[C@@H](CC(C)C)C(=O)N[C@H](C(=O)N[C@@H](CO)C(=O)N[C@@H](Cc1c[nH]c2ccccc12)C(=O)N[C@H](C(=O)N[C@@H](CCCCN)C(=O)N[C@@H](CCCNC(=N)N)C(=O)N[C@@H](CCCCN)C(=O)N[C@@H](CCCNC(=N)N)C(=O)N[C@@H](CCC(N)=O)C(=O)N[C@@H](CCC(N)=O)C(N)=O)[C@@H](C)CC)[C@@H](C)CC)[C@@H](C)O)[C@@H](C)O)C(C)C)C(C)C` [Melittin]: the “MIC in 6 μM NH4Cl” value in [10] (6 μM NH4Cl) stood at 6.25 µg/mL (≈ 2.2 µM). Also, the “MIC in 1 mM MgCl2” value in [10] (1 mM MgCl2) is 6.25 µg/mL (≈ 2.2 µM). For the same compound, the “MIC in 2.5 mM CaCl2” value in test [10] (2.5 mM CaCl2) was determined as 6.25 µg/mL (≈ 2.2 µM). The “MIC in 4.5 mM KCl” value in test [10] (4.5 mM KCl) turned out to be 6.25 µg/mL (≈ 2.2 µM). Besides, the “MIC in 150 mM NaCl” value in [10] (150 mM NaCl) came to 6.25 µg/mL (≈ 2.2 µM). Further, the “MIC in MS at concn 10%” value in [10] (10% mouse serum) worked out at 25.00 µg/mL (≈ 8.78 µM). Moreover, in test [10] (20% mouse serum), the “MIC in MS at concn 20%” value was 50.00 µg/mL (≈ 17.6 µM). Also, the “MIC in MS at concn 40%” value in [10] (40% mouse serum) came to 200.00 µg/mL (≈ 70.3 µM). Further, the “MIC in Control” value in test [10] (control, bacteria treated with peptide only) amounted to 6.25 µg/mL (≈ 2.2 µM).

Consider `CC[C@H](C)[C@H](NC(=O)[C@H](C)NC(=O)[C@H](CCCCN)NC(=O)[C@H](CCSC)NC(=O)[C@H](CCCCN)NC(=O)[C@H](CC(C)C)NC(=O)[C@@H]1CCCN1C(=O)[C@H](C)N)C(=O)N[C@@H](CC(C)C)C(=O)N[C@@H](CCC(=O)O)C(=O)N[C@H](C(=O)N[C@H](C(=O)N[C@@H](Cc1c[nH]cn1)C(=O)N[C@@H](CCCNC(=N)N)C(=O)N[C@@H](CCCNC(=N)N)C(=O)N[C@@H](CCSC)C(=O)N[C@@H](CCCCN)C(=O)N[C@@H](CCC(N)=O)C(=O)N[C@@H](CC(N)=O)C(=O)N[C@@H](CCCCN)C(=O)N[C@@H](CCSC)C(=O)N[C@@H](CCCCN)C(=O)N[C@@H](C)C(=O)N[C@@H](C)C(=O)N[C@@H](Cc1ccccc1)C(=O)O)C(C)C)[C@@H](C)CC` [smCCL27b-25] (H-APLKMKAILEIVHRRMKQNKMKAAF-OH; N-terminus and C-terminus assumed), for which the MIC in test [1] is 50.00 µg/mL (≈ 16.9 µM); in test [2] it was more than 50.00 µg/mL; in test [3] it was more than 50.00 µg/mL; in test [4], 25.00 µg/mL (≈ 8.46 µM); in test [5], 50.00 µg/mL (≈ 16.9 µM); in test [6], 25.00 µg/mL (≈ 8.46 µM). In addition, the MIC in test [7] is 25.00 µg/mL (≈ 8.46 µM); against P. aeruginosa FRD1 it was 25.00 µg/mL (≈ 8.46 µM); in test [8], more than 50.00 µg/mL; in [9] it was 25.00 µg/mL (≈ 8.46 µM). The “SYTOX green fluorescence intensity” value in the test on E. coli ATCC 25922 is on record as “increased rapidly within 20 min”.

With `CSCC[C@H](NC(=O)[C@H](CCCNC(=N)N)NC(=O)[C@H](CCCCN)NC(=O)[C@H](CCSC)NC(=O)[C@H](CC(C)C)NC(=O)[C@H](CCCCN)NC(=O)[C@H](CCC(N)=O)NC(=O)[C@H](CC(C)C)NC(=O)[C@H](Cc1ccccc1)NC(=O)[C@H](CCC(N)=O)NC(=O)[C@H](CCC(=O)O)NC(=O)[C@H](CCSC)NC(=O)[C@H](CCCCN)NC(=O)[C@@H]1CCCN1C(=O)[C@@H](NC(=O)[C@H](C)N)[C@@H](C)O)C(=O)N[C@@H](C)C(=O)N[C@@H](CCCNC(=N)N)C(=O)N[C@@H](CC(C)C)C(=O)N[C@@H](CCCCN)C(=O)N[C@@H](C)C(=O)N[C@@H](CO)C(=O)N[C@@H](C)C(=O)N[C@H](C(=O)O)C(C)C` [drCCL27b-24] (H-ATPKMEQFLQKLMKRMARLKASAV-OH; N-terminus and C-terminus assumed), the MIC is 25.00 µg/mL (≈ 9 µM) in test [1]; more than 50.00 µg/mL in test [2]; more than 50.00 µg/mL in test [3]; 25.00 µg/mL (≈ 9 µM) in [4]; 25.00 µg/mL (≈ 9 µM) in test [5]; 25.00 µg/mL (≈ 9 µM) in [6]. Further, the MIC (in [7]; against P. aeruginosa FRD1; in test [8]; in [9]) was 25.00 µg/mL (≈ 9 µM) each time. For the same compound, in the test on E. coli ATCC 25922, the “SYTOX green fluorescence intensity” value is given as “fluorescence trends similar to the trends in E. coli cells treated with lcCCL28-25”.
